Data from paper PMC8959600 (eLife, 2022).

Assays:
[1] = test system: E. coli; experiment: MIC by micro dilution, clinical E. coli isolates from Vietnam; format: cell-based; settings: Escherichia coli; seven E. coli from diarrhoeal cases in Vietnam; read-out: median MIC
Text: Selected compounds, including Tebipenem, were profiled against a panel of […] clinical isolates of enteric pathogens comprised of Shigella (Vietnam and Kenya; n = 135), non-typhoidal Salmonella (Vietnam; n = 117), Campylobacter (Vietnam; n = 75), and various pathogenic E. coli species (Vietnam; n = 7) ([Butcher et al., 2014]). The antimicrobial susceptibility profile of these organisms is described in Supplementary file 1.
Compound screening and dose response assays have been described previously ([Van Voorhis et al., 2016]; [Wiegand et al., 2008]). Briefly, the selected bacteria were cultured on the Luria-Bertani agar overnight at 37 °C (Campylobacter isolates were grown in 2.5% Laked Horse Blood cation-adjusted Mueller Hinton medium (CAMHB, Sigma Aldrich) and incubated in microaerophilic conditions (10% CO2, 5% O2 and 85% N2) at 42 °C); colonies were added to sterile PBS to form 0.5 McFarland solutions. […] The activity of the chemical was recorded as being active (yes) or non-active (no) for each of the tested chemicals. A non-active result was recorded when there was no evidence of bacterial inhibition, and the culture area was indistinguishable from the negative control.
MICs were evaluated using the micro dilution assay in Müller Hinton broth using 1 mM chemical stock solutions, and a final concentration of 5 × 10^5 CFU/mL bacteria. […]

[2] = test system: Salmonella (St14028); experiment: Checkerboard synergy assay (FIC), laboratory isolate; format: cell-based, S. Typhimurium
Experimental: Before initiating drug combination assays, the MIC values for both compounds were determined against Shigella (Sf2457T), Salmonella (St14028), and E. coli (EcDH5a) isolates. […] 20 μM moxifloxacin was used as negative control (100% bacterial growth inhibition) in one column and DMSO as positive control (100% bacterial growth). A total of 25 µl of 1 × 10^6 CFU/mL bacterial culture was added to each well of a 384-well plate (μClear; Greiner Bio‐One). Plates were incubated overnight at 37 °C. Next, 10 µl of resazurin were added and plates were incubated at room temperature for 3 hr. Bacterial growth inhibition was measured by fluorescence in a Envision plate reader (PerkinElmer). All assays were performed in duplicate. Combination studies with clinical isolates were performed in 96-well plates (Greiner) adding 200 μl of 1 × 10^6 CFU/mL bacterial culture and following the same checkboard titration method as described above. The range of final working concentrations of each antimicrobial was adjusted based on the MIC of each selected organism.
MICs were determined for drug A and drug B alone and in combination. […] The sum of FIC was expressed using the following equation: FIC = (MIC of drug A in combination / MIC of drug A alone) + (MIC of drug B in combination / MIC of drug B alone) ([Le Minh et al., 2015]; [Petersen et al., 2006]; [Hall et al., 1983]; [European Committee for Antimicrobial Susceptibility Testing (EUCAST) of the European Society of Clinical Microbiology and Infectious Dieases (ESCMID), 2000]).

[3] = Intestinal distribution by MALDI imaging in mice; format: in vivo; settings: 60 min after oral pro-drug
Experimental: One animal was euthanised at 0.25, 0.5, 1, and 4 hr respectively and 2.5–3 cm sections of the intestine (duodenum, jejunum, ileum, caecum, and colon) were collected and frozen at –80 °C. For quantitative LCMS analysis of intestine homogenate, samples were thawed at ambient temperature, mixed with water (1:1) and homogenised by turrax (10 sec). Subsequently, 20 µL of homogenate were mixed with 200 µl of ACN: MeOH (80:20) and filtered using 0.2 µm filter plate (Whatman). LCMS analysis was performed as described in previous section. For MALDI imaging, 50 mm of the central part of each intestinal section were cut and mounted in a sample disc on dry ice with a solution of 1% methylcellulose (Sigma Aldrich, UK). Next, tissue sections of 12 µm (sagital sections) were obtained using a cryostat (Leica CM3600; Leica Microsystems Inc, Wetzlar, Germany) at –20 °C and collected in conductive-coated slides for MALDI Imaging (Bruker Daltonic). After the ‘MALDI’ section was obtained a consecutive section for histology was taken. Prior to matrix coating, samples for MALDI were optical scanned in a PathScanner. The matrix deposition was conducted in a sprayer ImagePrep System (Bruker Daltonic) which uses vibrational vaporisation technology. As matrix solution α-CHCA (α-Cyano-4-hydroxycinnamic acid (Sigma Aldrich) dissolved in 70:30 methanol/water (v/v) containing 0.2% TFA at 7 mg/mL was used. MALDI MSI data were obtained using a Bruker UltrafleXtream MALDI TOF/TOF (Bruker Daltonic, Germany)).
Both compounds were analysed in positive mode using a LIFT method. For Tebipenem, parent compound was 384.32 and the detection mass window between m/z 0–400. 298.164 were the most intensive fragment. […] We used a laser shut at 85% power with a 50 μm step size, 100 times at raster spot in random wak mode. FlexImaging 4.1(bruker Daltoninc, Germany) were used for the data visualisation. […]
MALDI Imaging is not a quantitative technique, therefore, the colour scale of images is relative to the maximum intensity (100 corresponds with the maximal signa in each slide). […]

[4] = test system: S. flexneri 2457T; format: in vivo; settings: mice, 39 mg/kg Tebipenem freebase subcutaneously, 24 hr after intraperitoneal infection
[5] = in vivo; settings: female, C57, mouse; for bioavailability: mice, n = 3
[6] = in combination with LpxC inhibitor PF-5081090

In the case of `C[C@@H](O)[C@H]1C(=O)N2C(C(=O)O)=C(SC3CN(C4=NCCS4)C3)[C@H](C)[C@H]12` [Tebipenem], the MIC [1] is reported as < 0.1 µM, the “interaction (FIC index)” value [2, 6] is reported as “partial synergy” and the “reduction of the MIC against Tebipenem” value [2, 6] is reported as > 10 fold. The “interaction (FIC index)” value ([2]; in combination with azithromycin) was “partial synergy”, the “interaction (FIC index)” value ([2]; in combination with ceftriaxone) was “indifference or partial synergy” and the “interaction (FIC index)” value ([2]; in combination with ciprofloxacin) was “indifference or partial synergy”. The “interaction (FIC index)” value ([2]; in combination with mecillinam) was “indifference or partial synergy”, the “MALDI detection in the intestinal lumen” value [3] was “could be detected in the lumen and enterocytes throughout the gut” and the “reduction of organisms in the small intestine” value [4] was 1.2 log. The Tmax [5] was ≤ 60 min, the AUC(0-t) ([5]; 39 mg/kg) was 80000 ng·h/mL and the AUC(0-t) ([5]; po, 39 mg/kg) was 7500 ± 1500 ng·h/mL. The Cmax ([5]; po, 39 mg/kg) was 3700 ± 900 ng/mL, the bioavailability ([5]; po, 39 mg/kg, Tebipenem PO 39 mg/kg) was ~5% and the AUC(0-t) ([5]; sc, 39 mg/kg) was 80400 ± 7700 ng·h/mL. It also gave a Cmax ([5]; sc, 39 mg/kg) of 71000 ± 15300 ng/mL, a Tmax ([5]; sc, 39 mg/kg) of 15 min and a bioavailability ([5]; sc, 39 mg/kg, Tebipenem SQ 39 mg/kg) of 44 ± 4%.
